Strand notation (5' to 3'): a small letter for the sugar, then the base; units joined by * are phosphorothioate-linked, units joined directly phosphodiester-linked; [ ] holds rarer units or linkages, { } end groups; capitals alone tell only the bases. e = 2'-O-(2-methoxyethyl) (MOE); [5mC] = 5-methylcytosine; d = 2'-deoxy (DNA)
What follows are substances tested on rat RANKL mRNA (assay: Antisense inhibition of rat RANKL mRNA levels in UMR-106 cells, quantitative real-time PCR (Table 3)). Conditions: averages from three experiments.
Assay type: cell-based
Parameters: concentration or dose not given beside the values
Experimental: Cells were seeded onto 24-well plates (Falcon-353047) at a density of […] for use in antisense oligonucleotide transfection.
Cells are treated and data are obtained in triplicate. […] Cells were harvested 16-24 hours after oligonucleotide treatment.
PCR reagents were obtained from Invitrogen Corporation, (Carlsbad, Calif.).
Probes and primers to rat RANKL were designed to hybridize to a rat RANKL sequence, using published sequence information (GenBank accession number NM_057149.1, incorporated herein as SEQ ID NO:18). For rat RANKL the PCR primers were: • forward primer: […] (SEQ ID NO:19) • reverse primer: […] (SEQ ID NO: 20) and the • PCR probe was: FAM-[…]-TAMRA (SEQ ID NO: 21) where FAM is the fluorescent reporter dye and TAMRA is the quencher dye. For rat GAPDH the PCR primers were: • forward primer: […](SEQ ID NO:22) • reverse primer: […](SEQ ID NO:23) and the • PCR probe was: 5′ JOE-[…]-TAMRA 3′ (SEQ ID NO: 24) where JOE is the fluorescent reporter dye and TAMRA is the quencher dye.
In accordance with the present invention, a second series of antisense compounds was designed to target different regions of the rat RANKL RNA, using published sequences (GenBank accession number NM_057149.1, incorporated herein as SEQ ID NO: 18, and GenBank accession number AF425669.1, incorporated herein as SEQ ID NO: 200). […] All cytidine residues are 5-methylcytidines. […] If present, “N.D.” indicates “no data”.

Row | Substance | % INHIB (inhibition of rat RANKL mRNA levels)
1 | 286651 (eA*eG*eG*eT*eT*d[5mC]*dT*d[5mC]*dA*dG*dT*dG*dG*d[5mC]*dA*e[5mC]*eA*eG*eG*e[5mC]; antisense) [compound 286651] | 80%
2 | 286613 (antisense eG*eA*eT*e[5mC]*eA*dT*dG*dG*dT*dA*d[5mC]*d[5mC]*dA*dA*dG*eA*eG*eG*eA*e[5mC]) [compound 286613] | 39%
3 | aaaccatcatttctctgcaa (eA*eA*eA*e[5mC]*e[5mC]*dA*dT*d[5mC]*dA*dT*dT*dT*d[5mC]*dT*d[5mC]*eT*eG*e[5mC]*eA*eA; antisense) [ISIS 286653, 2′-MOE gapmer targeted to rat RANKL] | at least 40%
4 | atcttggcccagcctcgatc (eA*eT*e[5mC]*eT*eT*dG*dG*d[5mC]*d[5mC]*d[5mC]*dA*dG*d[5mC]*d[5mC]*dT*e[5mC]*eG*eA*eT*e[5mC]; antisense) [ISIS 286614, 2′-MOE gapmer targeted to rat RANKL] | at least 40%
5 | agttttccgttgcttaacgt (eA*eG*eT*eT*eT*dT*d[5mC]*d[5mC]*dG*dT*dT*dG*d[5mC]*dT*dT*eA*eA*e[5mC]*eG*eT; antisense) [ISIS 286617, 2′-MOE gapmer targeted to rat RANKL] | at least 40%
6 | caggaacagagcgatgctgc (e[5mC]*eA*eG*eG*eA*dA*d[5mC]*dA*dG*dA*dG*d[5mC]*dG*dA*dT*eG*e[5mC]*eT*eG*e[5mC]; antisense) [ISIS 286590, 2′-MOE gapmer targeted to rat RANKL] | at least 40%
7 | 286615 (antisense eT*eA*eG*eA*eG*dA*dT*d[5mC]*dT*dT*dG*dG*d[5mC]*d[5mC]*d[5mC]*eA*eG*e[5mC]*e[5mC]*eT) [compound 286615] | 45%
8 | 286622 (antisense eA*eA*eT*eA*eG*dA*dA*dG*d[5mC]*d[5mC]*dA*dT*d[5mC]*dT*dT*eG*eG*eT*eT*eA) [compound 286622] | 12%
9 | 286638 (antisense eA*eG*eT*eA*e[5mC]*dG*dT*d[5mC]*dG*d[5mC]*dA*dT*d[5mC]*dT*dT*eG*eA*eT*e[5mC]*e[5mC]) [compound 286638] | 26%
10 | 286619 (antisense eG*eG*eT*eT*eA*dA*d[5mC]*d[5mC]*d[5mC]*dT*dT*dA*dG*dT*dT*eT*eT*e[5mC]*e[5mC]*eG) [compound 286619] | 61%
11 | 286635 (antisense eT*eA*eA*eA*eA*dG*dT*dG*dG*dA*dA*dT*dT*d[5mC]*dA*eG*eA*eA*eT*eT) [compound 286635] | 11%
12 | 286604 (antisense eT*e[5mC]*e[5mC]*eA*eG*dA*dG*dT*d[5mC]*dG*dA*dG*dT*d[5mC]*d[5mC]*eT*eG*e[5mC]*eA*eA) [compound 286604] | 68%
13 | agaggacagactgactttat (eA*eG*eA*eG*eG*dA*d[5mC]*dA*dG*dA*d[5mC]*dT*dG*dA*d[5mC]*eT*eT*eT*eA*eT; antisense) [ISIS 286611, 2′-MOE gapmer targeted to rat RANKL] | at least 40%
14 | 286631 (antisense eA*eT*eG*e[5mC]*eT*dG*dG*dT*dT*dT*dT*dA*dA*d[5mC]*dG*eA*e[5mC]*eA*eT*eA) [compound 286631] | 35%
15 | 286605 (antisense eT*eT*eT*eG*e[5mC]*dA*d[5mC]*dG*dG*d[5mC]*d[5mC]*d[5mC]*d[5mC]*dT*dT*eG*eA*eA*eA*eG) [compound 286605] | 53%
16 | ctctgcaatgtaacggtacc (e[5mC]*eT*e[5mC]*eT*eG*d[5mC]*dA*dA*dT*dG*dT*dA*dA*d[5mC]*dG*eG*eT*eA*e[5mC]*e[5mC]; antisense) [ISIS 286652, 2′-MOE gapmer targeted to rat RANKL] | at least 40%
17 | tcacggagtctcagaattct (eT*e[5mC]*eA*e[5mC]*eG*dG*dA*dG*dT*d[5mC]*dT*d[5mC]*dA*dG*dA*eA*eT*eT*e[5mC]*eT; antisense) [ISIS 286601, 2′-MOE gapmer targeted to rat RANKL] | at least 40%
18 | ccattgtgtgatcaccatga (e[5mC]*e[5mC]*eA*eT*eT*dG*dT*dG*dT*dG*dA*dT*d[5mC]*dA*d[5mC]*e[5mC]*eA*eT*eG*eA; antisense) [ISIS 286648, 2′-MOE gapmer targeted to rat RANKL] | at least 40%
19 | ctgcgctcgaaagtacagga (e[5mC]*eT*eG*e[5mC]*eG*d[5mC]*dT*d[5mC]*dG*dA*dA*dA*dG*dT*dA*e[5mC]*eA*eG*eG*eA; antisense) [ISIS 286593, 2′-MOE gapmer targeted to rat RANKL] | at least 40%

Row | Substance | % INHIB (inhibition of rat RANKL mRNA levels)
20 | ttttaacgacatataccatc (eT*eT*eT*eT*eA*dA*d[5mC]*dG*dA*d[5mC]*dA*dT*dA*dT*dA*e[5mC]*e[5mC]*eA*eT*e[5mC]; antisense) [ISIS 286630, 2′-MOE gapmer targeted to rat RANKL] | at least 40%
21 | 286653 (eA*eA*eA*e[5mC]*e[5mC]*dA*dT*d[5mC]*dA*dT*dT*dT*d[5mC]*dT*d[5mC]*eT*eG*e[5mC]*eA*eA; antisense) [compound 286653] | 58%
22 | 286593 (antisense e[5mC]*eT*eG*e[5mC]*eG*d[5mC]*dT*d[5mC]*dG*dA*dA*dA*dG*dT*dA*e[5mC]*eA*eG*eG*eA) [compound 286593] | 49%
23 | 286657 (e[5mC]*e[5mC]*eA*eG*eT*dT*dA*dA*dA*dT*dA*d[5mC]*dA*dT*d[5mC]*eT*eT*eG*eA*e[5mC]; antisense) [compound 286657] | 10%
24 | 286587 (antisense eG*e[5mC]*eG*e[5mC]*eA*dG*dG*dT*dA*d[5mC]*dT*dT*dG*d[5mC]*d[5mC]*eG*eT*eA*eG*eT) [compound 286587] | 50%
25 | 286643 (antisense eG*e[5mC]*eA*eT*eA*dT*d[5mC]*d[5mC]*dA*dT*dG*d[5mC]*dT*dA*dA*eG*eG*e[5mC]*eT*e[5mC]) [compound 286643] | 69%
26 | 286642 (antisense eT*e[5mC]*eA*eG*eT*d[5mC]*dT*dA*dT*dG*dT*d[5mC]*dT*dT*dG*eA*eA*e[5mC]*eT*eT) [compound 286642] | 41%
27 | 286602 (antisense eA*eA*e[5mC]*e[5mC]*eT*dG*dT*dA*dT*dT*dT*dT*d[5mC]*dA*d[5mC]*eG*eG*eA*eG*eT) [compound 286602] | 48%
28 | atcttggttaacccttagtt (eA*eT*e[5mC]*eT*eT*dG*dG*dT*dT*dA*dA*d[5mC]*d[5mC]*d[5mC]*dT*eT*eA*eG*eT*eT; antisense) [ISIS 286620, 2′-MOE gapmer targeted to rat RANKL] | at least 40%
29 | 286610 (antisense eA*e[5mC]*eT*eT*eT*dA*dT*dG*dG*dG*dA*dA*d[5mC]*d[5mC]*d[5mC]*eG*eA*eT*eG*eG) [compound 286610] | 34%
30 | 286652 (e[5mC]*eT*e[5mC]*eT*eG*d[5mC]*dA*dA*dT*dG*dT*dA*dA*d[5mC]*dG*eG*eT*eA*e[5mC]*e[5mC]; antisense) [compound 286652] | 53%
31 | 286640 (antisense eA*eA*eA*eG*e[5mC]*d[5mC]*d[5mC]*d[5mC]*dA*dA*dA*dG*dT*dA*d[5mC]*eG*eT*e[5mC]*eG*e[5mC]) [compound 286640] | 56%
32 | 286644 (antisense eG*eT*e[5mC]*eT*eT*dA*d[5mC]*dA*d[5mC]*dA*dT*dG*dT*dA*dT*e[5mC]*eT*eA*e[5mC]*eA) [compound 286644] | 57%
33 | 286623 (antisense eT*eA*eA*eT*eA*dG*dA*dA*dG*d[5mC]*d[5mC]*dA*dT*d[5mC]*dT*eT*eG*eG*eT*eT) [compound 286623] | 16%
34 | 286625 (antisense eG*e[5mC]*eG*eT*eA*d[5mC]*dA*dG*dG*dT*dA*dA*dT*dA*dG*eA*eA*eG*e[5mC]*e[5mC]) [compound 286625] | 50%
35 | 286589 (antisense eA*e[5mC]*eA*eG*eA*dG*d[5mC]*dG*dA*dT*dG*d[5mC]*dT*dG*d[5mC]*eA*eG*eA*e[5mC]*e[5mC]) [compound 286589] | 49%
36 | 286655 (eG*eA*eA*eA*eA*d[5mC]*d[5mC]*dT*dT*dA*d[5mC]*dA*d[5mC]*d[5mC]*dT*eG*eA*eA*eA*eT; antisense) [compound 286655] | 0%
37 | ggtacttgccgtagtctcgg (antisense eG*eG*eT*eA*e[5mC]*dT*dT*dG*d[5mC]*d[5mC]*dG*dT*dA*dG*dT*e[5mC]*eT*e[5mC]*eG*eG) [ISIS 286586, 2′-MOE gapmer targeted to rat RANKL] | at least 40%
